# Assay results reported in patent US20260305610A1, “TRIAZOLE COMPOUND, AND PREPARATION METHOD THEREFOR, HERBICIDAL COMPOSITION AND USE THEREOF” (QINGDAO KINGAGROOT CHEMICAL COMPOUND CO., LTD., priority 2023, published 2026).
# System: weeds
# Assay: Activity assay of compositions: soil sealing treatment (S), fresh weight inhibition and combined effect (Gowing method)
# Assay type: in vivo
# Conditions: 21 d
# Method: The required active ingredient B was purchased from a reagent company or a technical material manufacturer or synthesized by a conventional method. The technical materials were all dissolved with acetone solvents and diluted with aqueous solution of 0.1% Tween-80 emulsifier, which should be used immediately after dilution.
# • Weeds were cultivated in a controllable sunlight greenhouse at 20 to 30° C., in natural light, and with relative humidity of 57% to 72%. […] The test soil was quantitatively filled to ¾ of the pot, and then watered from the bottom of the pot to completely wet the soil to saturation. The test weed seeds were accelerated to just germinate, and then evenly and quantitatively broadcasted on the soil surface, covered with 0.5-1 cm soil according to the sizes of the seeds, and ready for use 72 hours after sowing.
# Each treatment was repeated 4 times. Four pots with 20 weed seeds sowed per pot were treated each time.
# The well-sowed test materials were evenly placed on a platform with an area of 0.5 m^2, and foliage spraying was carried out by the 3WP-2000-type walking spray tower at a dosage of 450 kg/ha and a spray pressure of 0.3 MPa. After all the solution was sprayed, the air valve was closed. And 30 seconds later, the door of the spray tower was opened, and the nutritional bowl was taken out. Next, the air valve was opened, and the spray tube was cleaned by spraying 50 ml of water.
# A method for investigating absolute numbers was employed. Whole seedlings of survival weeds were cut off along the soil surface with a blade, and the fresh weight of the weeds was weighed using an analytical balance. For dead weeds, the fresh weight thereof was zero.
# The investigation was performed 21 days after the treatment for once in total.
# The theoretical fresh weight inhibition rate of a mixed combination of each treatment was calculated by the Gowing method (E0=X+Y−X*Y/100). Then compared with the measured inhibition rate (E), the type of the combined effect of the combination of the two on weeds was evaluated, which was a synergistic effect when E−E0>10%; an antagonistic effect when E−E0<−10%; an additional effect when −10%≤E−E0≤10%. An optimal ratio was determined according to factors such as the actual control effects, characteristics of herbicides, balance of the formulation, etc. In the formula, X represents the fresh weight inhibition rate of the active ingredient A in a dosage of P; Y represents the fresh weight inhibition rate of the active ingredient B in a dosage of Q. The statistical results are shown in Table 4.
# [1] = Eclipta prostrata, B 22.5 g a.i./ha
# [2] = Eclipta prostrata, B 45 g a.i./ha
# [3] = Eclipta prostrata, B 150 g a.i./ha
# [4] = Eclipta prostrata, B 300 g a.i./ha
# [5] = Lolium temulentum, B 375 g a.i./ha
# [6] = Lolium temulentum, B 750 g a.i./ha
# [7] = Commelina communis, B 30 g a.i./ha
# [8] = Commelina communis, B 60 g a.i./ha
# [9] = Amaranthus retroflexus, B 15 g a.i./ha
# [10] = Amaranthus retroflexus, B 30 g a.i./ha
# [11] = Lolium multiflorum, B 30 g a.i./ha
# [12] = Lolium multiflorum, B 60 g a.i./ha
# [13] = Commelina communis, B 15 g a.i./ha
# [14] = Eclipta prostrata, B 15 g a.i./ha
# [15] = Eclipta prostrata, B 30 g a.i./ha
# [16] = Eleocharis yokoscensis, B 150 g a.i./ha
# [17] = Eleocharis yokoscensis, B 300 g a.i./ha
# [18] = Eclipta prostrata, B 7.5 g a.i./ha
# [19] = Eclipta prostrata, B 75 g a.i./ha
smiles,measurement,setting,value
CS(=O)(=O)c1ccc(C(=O)C2=C(Sc3ccccc3)C3CCC(C3)C2=O)c(Cl)c1 (centres unmarked) [Benzobicyclon],Control effect of B applied alone in a corresponding dose (%),[1],49.2%
same,Control effect of B applied alone in a corresponding dose (%),[2],74.0%
CC1(C)CON(Cc2ccc(Cl)cc2Cl)C1=O [Bixlozone],Control effect of B applied alone in a corresponding dose (%),"Lolium multiflorum, B 75 g a.i./ha",50.2%
same,Control effect of B applied alone in a corresponding dose (%),"Lolium multiflorum, B 150 g a.i./ha",70.0%
CCCCOCN(C(=O)CCl)c1c(CC)cccc1CC [Butachlor],Control effect of B applied alone in a corresponding dose (%),[3],37.2%
same,Control effect of B applied alone in a corresponding dose (%),[4],66.8%
CCC(C)Nc1c([N+](=O)[O-])cc(C(C)(C)C)cc1[N+](=O)[O-] (centres unmarked) [Butralin],Control effect of B applied alone in a corresponding dose (%),[3],47.0%
same,Control effect of B applied alone in a corresponding dose (%),[4],65.3%
Cc1ccc(NC(=O)N(C)C)cc1Cl [Chlorotoluron],Control effect of B applied alone in a corresponding dose (%),[5],34.3%
same,Control effect of B applied alone in a corresponding dose (%),[6],59.3%
CCOC(=O)COc1ncccc1Oc1cc(-n2c(=O)cc(C(F)(F)F)n(C)c2=O)c(F)cc1Cl [Epyrifenacil],Control effect of B applied alone in a corresponding dose (%),[7],38.8%
same,Control effect of B applied alone in a corresponding dose (%),[8],50.5%
CCn1ncc(C(=O)c2ccc(S(C)(=O)=O)c(COCC(F)(F)F)c2Cl)c1OC(=O)c1cn(C)nc1C [Fenpyrazone],Control effect of B applied alone in a corresponding dose (%),[9],13.5%
same,Control effect of B applied alone in a corresponding dose (%),[10],33.7%
CCN(C(=O)n1nnn(-c2ccccc2Cl)c1=O)C1CCCCC1 [Fentrazamide],Control effect of B applied alone in a corresponding dose (%),[1],35.1%
same,Control effect of B applied alone in a corresponding dose (%),[2],48.9%
CC(C)N(C(=O)COc1nnc(C(F)(F)F)s1)c1ccc(F)cc1 [Flufenacet],Control effect of B applied alone in a corresponding dose (%),[11],46.2%
same,Control effect of B applied alone in a corresponding dose (%),[12],68.5%
C#CCN1C(=O)COc2cc(F)c(N3C(=O)C4=C(CCCC4)C3=O)cc21 [Flumioxazin],Control effect of B applied alone in a corresponding dose (%),[13],35.0%
same,Control effect of B applied alone in a corresponding dose (%),[7],50.6%
CC(C)c1ccc(NC(=O)N(C)C)cc1 [Isoproturon],Control effect of B applied alone in a corresponding dose (%),[5],37.1%
same,Control effect of B applied alone in a corresponding dose (%),[6],58.2%
CS(=O)(=O)c1cc(C(F)(F)F)ccc1C(=O)c1cnoc1C1CC1 [Isoxaflutole],Control effect of B applied alone in a corresponding dose (%),[9],36.7%
same,Control effect of B applied alone in a corresponding dose (%),[10],50.3%
CN(C(=O)COc1nc2ccccc2s1)c1ccccc1 [Mefenacet],Control effect of B applied alone in a corresponding dose (%),[3],40.6%
same,Control effect of B applied alone in a corresponding dose (%),[4],69.7%
COc1cc(OC)nc(NC(=O)NS(=O)(=O)c2c(C3=NOCC(C)O3)c(Cl)nn2C)n1 (centres unmarked) [Metazosulfuron],Control effect of B applied alone in a corresponding dose (%),[14],51.6%
same,Control effect of B applied alone in a corresponding dose (%),[15],69.2%
CSc1nnc(C(C)(C)C)c(=O)n1N [Metribuzin],Control effect of B applied alone in a corresponding dose (%),[16],40.6%
same,Control effect of B applied alone in a corresponding dose (%),[17],58.3%
CCN(CC)C(=O)C(C)Oc1cccc2ccccc12 (centres unmarked) [Napropamide],Control effect of B applied alone in a corresponding dose (%),"Descurainia sophia, B 150 g a.i./ha",38.6%
same,Control effect of B applied alone in a corresponding dose (%),"Descurainia sophia, B 300 g a.i./ha",55.7%
CC(C)(C)c1nn(-c2cc(OCC#N)c(Cl)cc2Cl)c(=O)o1 [Oxadiargyl],Control effect of B applied alone in a corresponding dose (%),"Solanum nigrum, B 45 g a.i./ha",51.2%
same,Control effect of B applied alone in a corresponding dose (%),"Solanum nigrum, B 90 g a.i./ha",64.7%
CC(C)Oc1cc(-n2nc(C(C)(C)C)oc2=O)c(Cl)cc1Cl [Oxadiazon],Control effect of B applied alone in a corresponding dose (%),"Solanum nigrum, B 30 g a.i./ha",45.8%
same,Control effect of B applied alone in a corresponding dose (%),"Solanum nigrum, B 60 g a.i./ha",53.5%
CC1=C(c2ccccc2)C(=O)N(C(C)(C)c2cc(Cl)cc(Cl)c2)CO1 [Oxaziclomefone],Control effect of B applied alone in a corresponding dose (%),[18],38.9%
same,Control effect of B applied alone in a corresponding dose (%),[14],56.8%
CCC(CC)Nc1c([N+](=O)[O-])cc(C)c(C)c1[N+](=O)[O-] [Pendimethalin],Control effect of B applied alone in a corresponding dose (%),[3],45.5%
same,Control effect of B applied alone in a corresponding dose (%),[4],63.2%
CC(C)=C1OC(=O)N(c2cc(OC3CCCC3)c(Cl)cc2F)C1=O [Pentoxazone],Control effect of B applied alone in a corresponding dose (%),[15],40.5%
same,Control effect of B applied alone in a corresponding dose (%),"Eclipta prostrata, B 60 g a.i./ha",61.4%
CCCOCCN(C(=O)CCl)c1c(CC)cccc1CC [Pretilachlor],Control effect of B applied alone in a corresponding dose (%),[19],38.4%
same,Control effect of B applied alone in a corresponding dose (%),[3],68.3%
CSc1nc(NC(C)C)nc(NC(C)C)n1 [Prometryn],Control effect of B applied alone in a corresponding dose (%),[16],42.1%
same,Control effect of B applied alone in a corresponding dose (%),[17],56.9%
CCCc1ccc2nc(Cl)c(S(=O)(=O)NC(=O)Nc3nc(OC)cc(OC)n3)n2n1 [Propyrisulfuron],Control effect of B applied alone in a corresponding dose (%),[18],42.8%
same,Control effect of B applied alone in a corresponding dose (%),[14],63.0%
CCCN(CCC)C(=O)SCc1ccccc1 [Prosulfocarb],Control effect of B applied alone in a corresponding dose (%),"Lolium multiflorum, B 300 g a.i./ha",46.5%
same,Control effect of B applied alone in a corresponding dose (%),"Lolium multiflorum, B 600 g a.i./ha",64.2%
C#CCN(C)c1c(C#N)cnn1-c1nn2c(c1Cl)CCCC2 [Pyraclonil],Control effect of B applied alone in a corresponding dose (%),"Eclipta prostrata, B 37.5 g a.i./ha",47.0%
same,Control effect of B applied alone in a corresponding dose (%),[19],65.8%
COCc1cccc(C(O)c2nc(OC)cc(OC)n2)c1NS(=O)(=O)C(F)F (centres unmarked) [Pyrimisulfan],Control effect of B applied alone in a corresponding dose (%),[18],54.4%
same,Control effect of B applied alone in a corresponding dose (%),[14],73.7%
Cn1nc(C(F)(F)F)c(CS(=O)(=O)C2=NOC(C)(C)C2)c1OC(F)F [Pyroxasulfone],Control effect of B applied alone in a corresponding dose (%),[11],40.6%
same,Control effect of B applied alone in a corresponding dose (%),[12],62.7%
CCc1cccc(C)c1N(C(=O)CCl)[C@@H](C)COC [S-metolachlor],Control effect of B applied alone in a corresponding dose (%),"Amaranthus retroflexus, B 150 g a.i./ha",41.4%
same,Control effect of B applied alone in a corresponding dose (%),"Amaranthus retroflexus, B 300 g a.i./ha",64.6%
CC(C)N(C)S(=O)(=O)NC(=O)c1cc(-n2c(=O)cc(C(F)(F)F)n(C)c2=O)c(F)cc1Cl [Saflufenacil],Control effect of B applied alone in a corresponding dose (%),[18],50.8%
same,Control effect of B applied alone in a corresponding dose (%),[14],69.6%
Cc1nn(-c2cc(NS(C)(=O)=O)c(Cl)cc2Cl)c(=O)n1C(F)F [Sulfentrazone],Control effect of B applied alone in a corresponding dose (%),"Solanum nigrum, B 15 g a.i./ha",48.5%
same,Control effect of B applied alone in a corresponding dose (%),"Solanum nigrum, B 30 g a.i./ha",60.0%
CS(=O)(=O)c1ccc(C(=O)C2C(=O)CCCC2=O)c(Cl)c1COCC1CCCO1 (centres unmarked) [Tefuryltrione],Control effect of B applied alone in a corresponding dose (%),"Ammannia arenaria, B 7.5 g a.i./ha",32.9%
same,Control effect of B applied alone in a corresponding dose (%),"Ammannia arenaria, B 15 g a.i./ha",55.2%
CCNc1nc(Cl)nc(NC(C)(C)C)n1 [Terbuthylazine],Control effect of B applied alone in a corresponding dose (%),"Chloris virgata, B 225 g a.i./ha",35.5%
same,Control effect of B applied alone in a corresponding dose (%),"Chloris virgata, B 450 g a.i./ha",52.7%
CN1C[C@H](c2cccc(C(F)(F)F)c2)[C@@H](C(=O)Nc2ccccc2F)C1=O [Tetflupyrolimet],Control effect of B applied alone in a corresponding dose (%),"Monochoria vaginalis, B 7.5 g a.i./ha",43.9%
same,Control effect of B applied alone in a corresponding dose (%),"Monochoria vaginalis, B 15 g a.i./ha",68.1%
COC(=O)c1csc(C)c1S(=O)(=O)NC(=O)n1nc(OC)n(C)c1=O [Thiencarbazone-methyl],Control effect of B applied alone in a corresponding dose (%),[13],45.4%
same,Control effect of B applied alone in a corresponding dose (%),[7],56.0%
COC(=O)c1sccc1S(=O)(=O)NC(=O)Nc1nc(C)nc(OC)n1 [Thifensulfuron-methyl],Control effect of B applied alone in a corresponding dose (%),"Silene conoidea, B 30 g a.i./ha",47.5%
same,Control effect of B applied alone in a corresponding dose (%),"Silene conoidea, B 60 g a.i./ha",62.1%
COC(=O)CCNC(=O)C(C)Sc1cc(-n2c(=O)cc(C(F)(F)F)n(C)c2=O)c(F)cc1Cl (centres unmarked) [Tiafenacil],Control effect of B applied alone in a corresponding dose (%),[7],48.2%
same,Control effect of B applied alone in a corresponding dose (%),[8],61.4%
